Tested on: HBV
Experiment: Anti-HBV activity in vitro: extracellular HBV DNA by qPCR in HepAD38 cells
Type: cell-based
Details: Hepatitis B virus, 96 hours incubation, extracellular HBV DNA by direct qPCR, read-out: HBV inh EC50
Source text: HepAD38 cell line (Ladner et al., Antimicrob Agents Chemother, 1997, 41, 1715-20) was used for HBV inhibition assays. HepAD38 is a subclone, derived from Hepatoblastoma cell line HepG2 (ATCC® Number: HB-8065™), that expresses HBV genome under the transcriptional control of a tetracycline-responsive promoter in a TET-OFF system: addition of tetracycline (TET) or doxycycline suppresses HBV replication, while its removal switches on the process allowing HBV viral particles release in the cell supernatant. HepAD38 cell line is maintained in DMEM/F12, supplemented with 10% of fetal bovine serum, 1% of glutamine, 1% of penicillin/streptomycin, 0.4 mg/ml G418 and 0,3 ug/ml tetracycline. For the HBV inhibition assay, doxycycline-free medium is used in order to allow virion production.
HBV inhibition activity in vitro was performed in 96 multiwell plates. During the initial (primary) screening, compounds were first tested in triplicates at concentrations of 0.02 µM, 0.1µM, 0.5µM and 1µM. For selected compounds, an 8-point dose-response curve was obtained using 1:2 serial dilutions (starting from 0.01µM, 0.1µM, 0.4µM or 5 µM, depending on the degree of inhibition observed during the primary screening). From the dose-response curves, half maximal effective concentration (EC50) could be calculated (see also below).
In more detail, compounds - typically dissolved in DMSO stock solutions - were diluted to 2x the final desired concentration in 100 µl of the above medium (without doxycycline) and plated in three replicates in the 96-well plates.
Simultaneously, HepAD38 cells - extensively pre-washed in tetracycline-free medium in order to induce HBV production - were suspended at 2^∗10^4 cells in 100 µl of tetracycline-free medium and added to each well of the plate, to yield a final assay volume of 200 µl DMSO - used for stock solutions and compounds dilutions - which was always present in the assays at a final concentration of 0.5%.
Plates were then incubated 96 hours at 37°C and then subjected to cell viability assays and extracellular HBV quantification, in order to evaluate both the cytotoxic potential and the antiviral activity of compounds. Cytotoxicity was assessed by a commercial fluorescence assay that measures the metabolic activity of cells, directly related to cell viability (Cell Titer Blue, Promega). Anti-HBV activity was evaluated by quantification of extracellular HBV DNA with direct qPCR. In particular, supernatant was collected and centrifuged for cell debris clarification, viral DNA was extracted from virions by addition of lysis buffer (1 mM 1,4-dithiothreitol, 0.2% sodium dodecyl sulphate) and incubated at 95°C for 10 min. Samples were then diluted 1:40 and real time PCR amplification was performed with SYBR green assay (Power SYBR™ Green PCR Master Mix-Thermo Fisher Scientific) and specific HBV primer (HBV-DF:5'-[…]-3' (SEQ ID No. 1), HBV-DR:5'-[…]-3' (SEQ ID No. 2)).
Antiviral activity data for each compound are reported as EC50 threshold value (see Table 1 legend). Excel and Graphpad Prism programs are typically used for data elaboration and EC50 calculation.

Q: `C[C@@H](NC(=O)C(=O)N1C[C@H]2COc3c(cn(C)c3C(=O)Nc3ccc(F)c(Cl)c3)S(=O)(=O)N[C@H]2C1)C(F)(F)F` [Example E1, (3aR,10aR)-N-(3-chloro-4-fluorophenyl)-7-methyl-2-(2-oxo-2-(((R)-1,1,1-trifluoropropan-2-yl)amino)acetyl)-2,3,3a,4,10,10a-hexahydro-1H,7H-dipyrrolo[3,4-b:3',4'-f][1,4,5]oxathiazocine-8-carboxamide 5,5-dioxide] was tested. Which EC50 did it give?
A: < 500 nM

Q: For `C[C@@H](NC(=O)C(=O)N1C[C@H]2COc3c(cn(C)c3C(=O)Nc3ccc(F)c(F)c3)S(=O)(=O)N[C@H]2C1)C(F)(F)F` [Example E2, (3aR,10aR)-N-(3,4-difluorophenyl)-7-methyl-2-(2-oxo-2-(((R)-1,1,1-trifluoropropan-2-yl)amino)acetyl)-2,3,3a,4,10,10a-hexahydro-1H,7H-dipyrrolo[3,4-b:3',4'-f][1,4,5]oxathiazocine-8-carboxamide 5,5-dioxide], which EC50 is on record?
A: < 500 nM

Q: `C[C@@H](NC(=O)C(=O)N1C[C@H]2COc3c(cn(C)c3C(=O)Nc3ccc(F)c(C(F)F)c3)S(=O)(=O)N[C@H]2C1)C(F)(F)F` [Example E3, (3aR,10aR)-N-(3-(difluoromethyl)-4-fluorophenyl)-7-methyl-2-(2-oxo-2-(((R)-1,1,1-trifluoropropan-2-yl)amino)acetyl)-2,3,3a,4,10,10a-hexahydro-1H,7H-dipyrrolo[3,4-b:3',4'-f][1,4,5]oxathiazocine-8-carboxamide 5,5-dioxide] was tested. Which EC50 did it give?
A: < 500 nM

Q: `C[C@@H](NC(=O)C(=O)N1C[C@H]2COc3c(cn(C)c3C(=O)Nc3ccc(F)c(C(F)(F)F)c3)S(=O)(=O)N[C@H]2C1)C(F)(F)F` [Example E4, (3aR,10aR)-N-(4-fluoro-3-(trifluoromethyl)phenyl)-7-methyl-2-(2-oxo-2-(((R)-1,1,1-trifluoropropan-2-yl)amino)acetyl)-2,3,3a,4,10,10a-hexahydro-1H,7H-dipyrrolo[3,4-b:3',4'-f][1,4,5]oxathiazocine-8-carboxamide 5,5-dioxide] was tested. Which EC50 did it give?
A: < 500 nM

Q: How did the EC50 turn out when `C[C@@H](NC(=O)C(=O)N1C[C@H]2COc3c(c(Cl)n(C)c3C(=O)Nc3ccc(F)c(Cl)c3)S(=O)(=O)N[C@H]2C1)C(F)(F)F` [Example E5, (3aR,10aR)-6-chloro-N-(3-chloro-4-fluorophenyl)-7-methyl-2-(2-oxo-2-(((R)-1,1,1-trifluoropropan-2-yl)amino)acetyl)-2,3,3a,4,10,10a-hexahydro-1H,7H-dipyrrolo[3,4-b:3',4'-f][1,4,5]oxathiazocine-8-carboxamide 5,5-dioxide] was run?
A: < 500 nM

Q: How did the EC50 turn out when `C[C@@H](NC(=O)C(=O)N1C[C@H]2COc3c(c(Cl)n(C)c3C(=O)Nc3ccc(F)c(F)c3)S(=O)(=O)N[C@H]2C1)C(F)(F)F` [Example E6, (3aR,10aR)-6-chloro-N-(3,4-difluorophenyl)-7-methyl-2-(2-oxo-2-(((R)-1,1,1-trifluoropropan-2-yl)amino)acetyl)-2,3,3a,4,10,10a-hexahydro-1H,7H-dipyrrolo[3,4-b:3',4'-f][1,4,5]oxathiazocine-8-carboxamide 5,5-dioxide] was run?
A: < 500 nM

Q: With `C[C@@H](NC(=O)C(=O)N1C[C@H]2COc3c(c(Cl)n(C)c3C(=O)Nc3ccc(F)c(C(F)F)c3)S(=O)(=O)N[C@H]2C1)C(F)(F)F` [Example E7, (3aR,10aR)-6-chloro-N-(3-(difluoromethyl)-4-fluorophenyl)-7-methyl-2-(2-oxo-2-(((R)-1,1,1-trifluoropropan-2-yl)amino)acetyl)-2,3,3a,4,10,10a-hexahydro-1H,7H-dipyrrolo[3,4-b:3',4'-f][1,4,5]oxathiazocine-8-carboxamide 5,5-dioxide] as the molecule, how does the EC50 read?
A: < 500 nM

Q: For `C[C@@H](NC(=O)C(=O)N1C[C@H]2COc3c(c(Cl)n(C)c3C(=O)Nc3ccc(F)c(C(F)(F)F)c3)S(=O)(=O)N[C@H]2C1)C(F)(F)F` [Example E8, (3aR,10aR)-6-chloro-N-(4-fluoro-3-(trifluoromethyl)phenyl)-7-methyl-2-(2-oxo-2-(((R)-1,1,1-trifluoropropan-2-yl)amino)acetyl)-2,3,3a,4,10,10a-hexahydro-1H,7H-dipyrrolo[3,4-b:3',4'-f][1,4,5]oxathiazocine-8-carboxamide 5,5-dioxide], which EC50 is on record?
A: < 500 nM

Q: With `Cc1cc(NC(=O)c2c3c(c(Cl)n2C)S(=O)(=O)N[C@H]2CN(C(=O)C(=O)N[C@H](C)C(F)(F)F)C[C@H]2CO3)ccc1F` [Example E9, (3aR,10aR)-6-chloro-N-(4-fluoro-3-methylphenyl)-7-methyl-2-(2-oxo-2-(((R)-1,1,1-trifluoropropan-2-yl)amino)acetyl)-2,3,3a,4,10,10a-hexahydro-1H,7H-dipyrrolo[3,4-b:3',4'-f][1,4,5]oxathiazocine-8-carboxamide 5,5-dioxide] as the molecule, how does the EC50 read?
A: < 500 nM

Reference: patent EP3825318A1, “OXALAMIDO-SUBSTITUTED TRICYCLIC INHIBITORS OF HEPATITIS B VIRUS” (priority 2019, dated 2021)
